Data as given in US20070128217A1 (priority 2003, published 2007).

Experiments:
[1] = system: antibodies in sera from SARS patients (sera 1a, 1b, 2, 6, 37, 62, London, SARS-yellow, SARS-green); type: binding, human; design: Binding of serum 6 to linear peptides of protein X1 of SARS-CoV Urbani / Binding of serum 37 to linear peptides of protein X1 of SARS-CoV Urbani / Binding of serum 6 to looped/cyclic peptide (PEPSCAN-ELISA) / Binding of serum 37 to looped/cyclic peptide (PEPSCAN-ELISA) / Binding of serum 37 to looped/cyclic peptides of protein X1 of SARS-CoV Urbani / Binding of serum 6 to linear peptides of protein X2 / Binding of serum 37 to linear peptides of protein X2 / Binding of serum 37 to looped/cyclic peptides of protein X2 of SARS-CoV Urbani / Binding of serum 6 to linear peptides of protein M of SARS-CoV Urbani / Binding of serum 37 to linear peptides of protein M of SARS-CoV Urbani / Binding of serum 6 to looped/cyclic peptides of protein M of SARS-CoV Urbani / Binding of serum 37 to looped/cyclic peptides of protein M of SARS-CoV Urbani / Binding of serum 6 to linear peptides of protein X3 of SARS-CoV Urbani / Binding of serum 37 to linear peptides of protein X3 of SARS-CoV Urbani / Binding of serum 37 to looped/cyclic peptides of protein X3 of SARS-CoV Urbani / Binding of serum 6 to linear peptides of protein X4 of SARS-CoV Urbani / Binding of serum 37 to linear peptides of protein X4 of SARS-CoV Urbani / Binding of serum 37 to looped/cyclic peptides of protein X4 of SARS-CoV Urbani / Binding of serum 6 to linear peptides of protein X5 of SARS-CoV Urbani / Binding of serum 37 to linear peptides of protein X5 of SARS-CoV Urbani / Binding of serum 37 to looped/cyclic peptides of protein X5 of SARS-CoV Urbani / Binding of serum 6 to linear peptides of protein N of SARS-CoV Urbani / Binding of serum 37 to linear peptides of protein N of SARS-CoV Urbani / Binding of serum 6 to linear peptide (PEPSCAN-ELISA) / Binding of serum 1a to looped/cyclic peptides of protein N of SARS-CoV Urbani / Binding of serum 1b to looped/cyclic peptides of protein N of SARS-CoV Urbani / Binding of serum 2 to looped/cyclic peptides of protein N of SARS-CoV Urbani / Binding of serum 6 to looped/cyclic peptides of protein N of SARS-CoV Urbani / Binding of serum 37 to looped/cyclic peptides of protein N of SARS-CoV Urbani / Binding of serum 62 to looped/cyclic peptides of protein N of SARS-CoV Urbani / Binding of serum London to looped/cyclic peptides of protein N of SARS-CoV Urbani / Binding of serum SARS-green to looped/cyclic peptides of protein N of SARS-CoV Urbani: unit not given here
[2] = system: control sera (pooled serum of ten healthy LUMC hospital workers; commercial negative donor pooled serum from the Dutch bloodbank); type: binding, human; design: Binding of Control serum LUMC to linear peptides / Binding of Control serum Blood-bank to linear peptides / Binding of Control serum LUMC to looped peptides / Binding of Control Serum Blood-Bank to Looped peptides / Binding of Control serum LUMC to linear peptides of the protein M of SARS-CoV Urbani / Binding of Control serum Blood-bank to linear peptides of the protein M of SARS-CoV Urbani / Binding of Control serum LUMC to looped peptides of the protein M of SARS-CoV Urbani / Binding of Control Serum Blood-Bank to Looped peptides of the protein M of SARS-CoV Urbani: unit not given here
[3] = system: rabbit serum obtained by immunizing a rabbit with the SARS-CoV strain Frankfurt 1; type: binding; design: Binding of a rabbit serum to linear peptides / Binding of a rabbit serum to looped peptides / Rabbit serum linear peptides / Rabbit serum looped peptides / Binding of a rabbit serum to linear peptides of protein N of SARS-CoV Urbani (Rabbit serum linear peptides) / Binding of a rabbit serum to looped/cyclic peptides of protein N of SARS-CoV Urbani (Rabbit serum looped peptides): unit not given here

Sequence: MEAQFLYLYALIYFL
- Binding of serum 1a to linear peptides of protein X1 of SARS-CoV Urbani [1]: 0.7
- Binding of serum 1a to looped/cyclic peptide (PEPSCAN-ELISA) [1]: 0.5
- Binding of serum 1b to linear peptides of protein X1 of SARS-CoV Urbani [1]: 0.6
- Binding of serum 1b to looped/cyclic peptide (PEPSCAN-ELISA) [1]: 0.3
- Binding of serum 2 to linear peptides of protein X1 of SARS-CoV Urbani [1]: 0.5
- Binding of serum 2 to looped/cyclic peptide (PEPSCAN-ELISA) [1]: 0.4
- Binding of serum 6 to linear peptides of protein X1 of SARS-CoV Urbani [1]: 0.4
- Binding of serum 6 to looped/cyclic peptide (PEPSCAN-ELISA) [1]: 0.2
- Binding of serum 37 to linear peptides of protein X1 of SARS-CoV Urbani [1]: 0.5
- Binding of serum 37 to looped/cyclic peptide (PEPSCAN-ELISA) [1]: 0.8
- Binding of serum 62 to linear peptides of protein X1 of SARS-CoV Urbani [1]: 0.4
- Binding of serum 62 to looped/cyclic peptide (PEPSCAN-ELISA) [1]: 0.5
- Binding of serum London to linear peptides of protein X1 of SARS-CoV Urbani [1]: 0.2
- Binding of serum London to looped/cyclic peptide (PEPSCAN-ELISA) [1]: 0.2
- Binding of serum SARS-green to linear peptides of protein X1 of SARS-CoV Urbani [1]: 0.0
- Binding of serum SARS-green to looped/cyclic peptide (PEPSCAN-ELISA) [1]: 0.2
- Binding of serum SARS-yellow to linear peptides of protein X1 of SARS-CoV Urbani [1]: 0.2
- Binding of serum SARS-yellow to looped/cyclic peptide (PEPSCAN-ELISA) [1]: 0.4
- Binding of Control Serum Blood-Bank to Looped peptides [2]: 0.4
- Binding of Control serum Blood-bank to linear peptides [2]: 0.2
- Binding of Control serum LUMC to linear peptides [2]: 0.5
- Binding of Control serum LUMC to looped peptides [2]: 0.5
- Binding of a rabbit serum to linear peptides [3]: 0.1
- Binding of a rabbit serum to looped peptides [3]: 0.5

Sequence: YRIGNYKLNTDHAGS
- Binding of serum 1a to linear peptides of protein M of SARS-CoV Urbani [1]: 0.7
- Binding of serum 1a to looped/cyclic peptides of protein M of SARS-CoV Urbani [1]: 0.8
- Binding of serum 1b to linear peptides of protein M of SARS-CoV Urbani [1]: 0.6
- Binding of serum 1b to looped/cyclic peptides of protein M of SARS-CoV Urbani [1]: 0.6
- Binding of serum 2 to linear peptides of protein M of SARS-CoV Urbani [1]: 0.5
- Binding of serum 2 to looped/cyclic peptides of protein M of SARS-CoV Urbani [1]: 0.5
- Binding of serum 6 to linear peptides of protein M of SARS-CoV Urbani [1]: 0.2
- Binding of serum 6 to looped/cyclic peptides of protein M of SARS-CoV Urbani [1]: 0.8
- Binding of serum 37 to linear peptides of protein M of SARS-CoV Urbani [1]: 0.8
- Binding of serum 37 to looped/cyclic peptides of protein M of SARS-CoV Urbani [1]: 0.7
- Binding of serum 62 to linear peptides of protein M of SARS-CoV Urbani [1]: 0.7
- Binding of serum 62 to looped/cyclic peptides of protein M of SARS-CoV Urbani [1]: 0.6
- Binding of serum London to linear peptides of protein M of SARS-CoV Urbani [1]: 0.5
- Binding of serum London to looped/cyclic peptides of protein M of SARS-CoV Urbani [1]: 0.4
- Binding of serum SARS-green to linear peptides of protein M of SARS-CoV Urbani [1]: 0.2
- Binding of serum SARS-green to looped/cyclic peptides of protein M of SARS-CoV Urbani [1]: 0.3
- Binding of serum SARS-yellow to linear peptides of protein M of SARS-CoV Urbani [1]: 0.1
- Binding of serum SARS-yellow to looped/cyclic peptides of protein M of SARS-CoV Urbani [1]: 0.6
- Binding of Control Serum Blood-Bank to Looped peptides of the protein M of SARS-CoV Urbani [2]: 0.6
- Binding of Control serum Blood-bank to linear peptides of the protein M of SARS-CoV Urbani [2]: 0.6
- Binding of Control serum LUMC to linear peptides of the protein M of SARS-CoV Urbani [2]: 0.3
- Binding of Control serum LUMC to looped peptides of the protein M of SARS-CoV Urbani [2]: 0.6
- Rabbit serum linear peptides [3]: 0.6
- Rabbit serum looped peptides [3]: 0.1

Sequence: LLLFVTIYSHLLLVA
- Binding of serum 1a to linear peptides of protein X1 of SARS-CoV Urbani [1]: 0.7
- Binding of serum 1a to looped/cyclic peptide (PEPSCAN-ELISA) [1]: 0.5
- Binding of serum 1b to linear peptides of protein X1 of SARS-CoV Urbani [1]: 0.5
- Binding of serum 1b to looped/cyclic peptide (PEPSCAN-ELISA) [1]: 0.3
- Binding of serum 2 to linear peptides of protein X1 of SARS-CoV Urbani [1]: 0.6
- Binding of serum 2 to looped/cyclic peptide (PEPSCAN-ELISA) [1]: 0.4
- Binding of serum 6 to linear peptides of protein X1 of SARS-CoV Urbani [1]: 0.3
- Binding of serum 6 to looped/cyclic peptide (PEPSCAN-ELISA) [1]: 0.2
- Binding of serum 37 to linear peptides of protein X1 of SARS-CoV Urbani [1]: 0.5
- Binding of serum 37 to looped/cyclic peptide (PEPSCAN-ELISA) [1]: 0.5
- Binding of serum 62 to linear peptides of protein X1 of SARS-CoV Urbani [1]: 0.4
- Binding of serum 62 to looped/cyclic peptide (PEPSCAN-ELISA) [1]: 0.4
- Binding of serum London to linear peptides of protein X1 of SARS-CoV Urbani [1]: 0.2
- Binding of serum London to looped/cyclic peptide (PEPSCAN-ELISA) [1]: 0.2
- Binding of serum SARS-green to linear peptides of protein X1 of SARS-CoV Urbani [1]: 0.0
- Binding of serum SARS-green to looped/cyclic peptide (PEPSCAN-ELISA) [1]: 0.2
- Binding of serum SARS-yellow to linear peptides of protein X1 of SARS-CoV Urbani [1]: 0.3
- Binding of serum SARS-yellow to looped/cyclic peptide (PEPSCAN-ELISA) [1]: 0.4
- Binding of Control Serum Blood-Bank to Looped peptides [2]: 0.5
- Binding of Control serum Blood-bank to linear peptides [2]: 0.4
- Binding of Control serum LUMC to linear peptides [2]: 0.4
- Binding of Control serum LUMC to looped peptides [2]: 0.5
- Binding of a rabbit serum to linear peptides [3]: 0.1
- Binding of a rabbit serum to looped peptides [3]: 0.5
